Test results from patent publication US20040019091A1, “Triazole derivatives and pharmaceutical compositions comprising them” (priority 2000, published 2004).

Experiments:
human CCK2 receptor = molecular target: T1, human CCK2 receptor (Homo sapiens, UniProt P32239); experiment: in vitro binding to CCK2 receptor; settings: read-out: IC50 (affinity, human CCK2 receptor)
T1 sequence (P32239 1-447): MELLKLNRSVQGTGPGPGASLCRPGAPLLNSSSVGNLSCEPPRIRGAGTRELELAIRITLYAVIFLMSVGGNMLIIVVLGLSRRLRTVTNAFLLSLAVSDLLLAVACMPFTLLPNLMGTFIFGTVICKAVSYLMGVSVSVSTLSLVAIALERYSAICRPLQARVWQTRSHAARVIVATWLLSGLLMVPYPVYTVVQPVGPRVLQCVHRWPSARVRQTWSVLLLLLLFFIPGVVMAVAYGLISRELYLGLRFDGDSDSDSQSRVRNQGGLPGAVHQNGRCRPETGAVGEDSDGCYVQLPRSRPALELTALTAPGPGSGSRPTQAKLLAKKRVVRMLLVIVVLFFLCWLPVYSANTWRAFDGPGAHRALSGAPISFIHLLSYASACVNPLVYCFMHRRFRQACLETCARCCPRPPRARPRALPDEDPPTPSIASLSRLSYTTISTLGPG
Method: their selectivity for the CCK2 receptor;
(§1) The compounds of formula (I) underwent studies of in vitro binding to CCK1 and CCK2 receptors, using the method described in Europ. J. Pharmacol., 1993, 232, 13-19. […] The agonist activity of the compounds towards CCK1 receptors was evaluated in vitro in 3T3 cells expressing the human CCK1 receptor, by measuring the mobilization of the intracellular calcium ([Ca^++]i), according to a technique derived from that of Lignon M F et al., Eur. J. Pharmacol., 1993, 245, 241-245. The calcium concentration [Ca^++]i is evaluated with Fura-2 by the double excitation wavelength method. The ratio of the fluorescence emitted at two wavelengths gives the concentration of [Ca^++]i, after calibration (Grynkiewiez G. et al., J. Biol. Chem., 1985, 260, 3440-3450).

human CCK1 receptor = molecular target: T2, human CCK1 receptor (Homo sapiens, UniProt P32238); experiment: in vitro binding to CCK1 receptor ([125I]-CCK displacement)
T2 construct: expressed in transfected cells; host or cells: 3T3 cells
T2 sequence (P32238 1-428): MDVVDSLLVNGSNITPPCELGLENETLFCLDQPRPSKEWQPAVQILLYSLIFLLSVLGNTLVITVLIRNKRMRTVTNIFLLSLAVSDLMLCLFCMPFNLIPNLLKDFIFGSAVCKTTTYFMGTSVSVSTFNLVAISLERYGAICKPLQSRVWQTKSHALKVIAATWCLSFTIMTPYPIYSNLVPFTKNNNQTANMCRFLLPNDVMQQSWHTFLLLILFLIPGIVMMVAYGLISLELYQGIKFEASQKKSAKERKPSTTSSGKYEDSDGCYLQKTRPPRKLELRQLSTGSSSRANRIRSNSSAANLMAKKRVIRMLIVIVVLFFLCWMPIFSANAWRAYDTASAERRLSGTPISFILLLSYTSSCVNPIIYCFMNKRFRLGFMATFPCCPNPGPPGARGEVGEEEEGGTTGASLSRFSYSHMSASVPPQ
Method: their potentiality for displacing [^125I]-CCK from its binding sites present in rat pancreatic membranes (CCK1 receptor) or 3T3 cells expressing recombinant human CCK1 receptor;
as §1

[1] = molecular target: T3, 3T3 cells expressing the human CCK1 receptor (Homo sapiens, UniProt P32238); experiment: mobilization of intracellular calcium ([Ca++]i), Fura-2; type: cell-based; settings: read-out: EC50 [Ca++]i release
T3 construct: expressed in transfected cells; host or cells: 3T3 cells
T3 sequence (P32238 1-428): T2 sequence (P32238 1-428)
Method: their CCK1 receptor agonist property, by way of their capacity to induce mobilization of intracellular calcium in vitro in 3T3 cells expressing the human CCK1 receptor;
as §1

gastric emptying = gastric emptying of a charcoal meal in the mouse, oral route; type: in vivo, Female Swiss albino CD1 mice; settings: p.o., 60 minutes before charcoal meal, read-out: ED50 inhibition of gastric emptying
Method: their agonist effect by the oral route on gastric drainage in the mouse.
An in vivo study of the agonist effect of the compounds on gastric emptying was carried out as follows. Female Swiss albino CD1 mice (20-25 g) are placed on a solid fast for 18 hours. On the day of the experiment, the products are administered orally 60 minutes before the administration of a charcoal meal (0.3 ml per mouse of a suspension in water of 10% charcoal powder, 5% gum arabic and 1% carboxymethylcellulose). The mice are sacrificed 5 minutes later by cervical dislocation, and the gastric emptying is defined as the presence of charcoal in the intestine beyond the pyloric sphincter (Europ. J. Pharmacol., 1993, 232, 13-19).

CCNCC.COc1cc(-c2nc(NC(=O)c3cc4c(C)c(C)c(OC)cc4n3CCC(=O)O)nn2CCC2CCCCC2)c(OC)cc1C
melting point: 143 °C (dec.)

COc1cc(-c2nc(NC(=O)c3cc4c(C)c(C)c(OC)cc4n3CCC(=O)[O-])nn2CCC2CCCCC2)c(OC)cc1C.[K+] [Example 1, 3-[2-[[[1-(2-cyclohexylethyl)-5-(2,5-dimethoxy-4-methylphenyl)-1H-1,2,4-triazol-3-yl]amino]carbonyl]-6-methoxy-4,5-dimethyl-1H-indol-1-yl]propionic acid, Potassium Salt]
IC50 (human CCK2 receptor): 234 nM
IC50 (human CCK1 receptor; human CCK1 receptor, read-out: IC50 (affinity, human CCK1 receptor)): 0.4 nM
selectivity (affinity CCK1 receptor versus affinity of CCK2 receptor) (human CCK1 receptor; human CCK1 versus human CCK2): > 500 fold
EC50 [1]: ~1 nM

COc1cc(-c2nc(NC(=O)c3cc4c(C)c(C)c(OC)cc4n3CCC(=O)O)nn2CCC2CCCCC2)c(OC)cc1C.NCCO [Example 3, 3-[2-[[[1-(2-cyclohexylethyl)-5-(2,5-dimethoxy-4-methylphenyl)-1H-1,2,4-triazol-3-yl]amino]carbonyl]-6-methoxy-4,5-dimethyl-1H-indol-1-yl]propionic acid ethanolamine salt]
ED50 (gastric emptying): 0.027 mg/kg
